Consider 27 compounds from patent US20250066350A1, “AROMATIC HETEROCYCLE-SUBSTITUTED COMPOUNDS, AND PREPARATION METHOD THEREFOR AND USE THEREOF” (Innovstone Therapeutics Limited, priority 2021, published 2025).

In one experiment the target is ATR enzyme (Homo sapiens (Human), UniProt Q13535). As to the kind of experiment: Inhibitory effect on ATR enzyme (HTRF, phospho-P53). The experiment is classed as biochemical. The conditions noted are these: 90 minutes incubation, 150 nM ATP final; read-out: IC50 for ATR enzyme inhibition. As for the experimental part: Test Example 1. Inhibitory Effect of Compounds of the Present Invention on ATR Enzyme
The following method is used to determine the inhibitory effect of the compounds of the present invention on the ATR enzyme. The experimental method is briefly described as follows:
1. ATR enzyme (Eurofins Pharma Discovery Services, 14-953M)
2. GST-tagged P53 protein (Eurofins Pharma Discovery Services, 14-952M)
15 nM ATR enzyme, 80 nM P53 protein, 300 nM ATP (the final concentrations were 40 nM and 150 nM, respectively), and small molecule compounds of various concentrations (the final concentrations (nM) of the ten points were 2985.0, 895.5, 298.5, 110.56, 33.17, 11.06, 4.09, 1.23, 0.41 and 0.15, respectively, and the final dimethyl sulfoxide concentration was 0.498%) were mixed and incubated at room temperature for 90 minutes. 10 μL of 2× cocktail buffer was added to the mixture of ATR, compound and substrate in the assay plate (anti-phospho-p53-Eu and anti-GST-d2 were diluted in the assay buffer). The resulting mixture was centrifuged at 1000 rpm for 30 seconds, and incubated overnight at 4° C. in the dark (a total of 20 μl in each well). The FRET signal (endpoint) was measured in the Envision instrument (HTRF 665/612 ratio was calculated at 665 nm emission and 612 nm emission). Data were processed using GraphPad software.
The inhibitory activity of the compounds of the present invention on the ATR enzyme can be determined by the test described above, and the measured IC50 values are shown in Table 1.

For a further experiment, the system named is SNU-601 cells. Kind of experiment: SNU-601 cell proliferation experiment (CellTiter-Glo, intracellular ATP). The conditions noted are these: SNU-601 human gastric cancer cells, 5 days, read-out: IC50 for inhibition of SNU-601 cell proliferation. Type of experiment: cell-based. The protocol: The following method is used to evaluate the inhibitory effect of the compounds of the present disclosure on SNU-601 cell proliferation according to the IC50 values by means of detecting the intracellular ATP content. The experimental method is briefly described as follows:
1. SNU-601, human gastric cancer tumor cells (Co-bioer, CBP60507)
SNU-601 cells were cultured in RPMI 1640 medium containing 10% FBS and passaged 2 to 3 times a week at a split ratio of 1:5 or 1:10. During passage, the cells were trypsinized and transferred to a centrifuge tube. The tube was centrifuged at 1000 rpm for 5 minutes, the supernatant medium was discarded, and fresh medium was added to resuspend the cells. 195 μL of cell suspension at a density of 5.128×10^3 cells/mL was added to a 96-well cell culture plate, and 200 μL of complete medium only was added to the periphery wells of the 96-well plate. The culture plate was incubated in an incubator for 24 hours (37° C., 5% CO2).
The sample to be tested was diluted to 2 mM with DMSO, diluted 3-fold serially to 10 concentrations. Blank and control wells were set. 10 μL of the solution containing the compound to be tested prepared in gradient concentrations was added to 50 μL of fresh medium. 5 μL of the above culture medium solution containing the compound was added to the culture plate. The culture plate was incubated in an incubator for 5 days (37° C., 5% CO2). 50 μL of CellTiter-Glo reagent was added to each well of the 96-well cell culture plate after discarding 100 μL/well, and the plate was shaken at room temperature in the dark for 10 min. The chemiluminescent signal values were read in PHERAstar, and data were processed using GraphPad software.
The inhibitory effect of the compounds of the present invention on SNU-601 cell proliferation can be determined by the test described above, and the measured IC50 values are shown in Table 3.

The subject of a further experiment is LoVo cells. As to the kind of experiment: LoVo cell proliferation experiment (CellTiter-Glo, intracellular ATP). Type of experiment: cell-based. The conditions noted are these: 96 h; LoVo human colon cancer cells, 4 days; read-out: IC50 for inhibition of LoVo cell proliferation. The protocol:
The following method is used to evaluate the inhibitory effect of the compounds of the present invention on LoVo cell proliferation according to the IC50 values by means of detecting the intracellular ATP content. The experimental method is briefly described as follows:
1. LoVo, human colon cancer tumor cells (Co-bioer, CBP60032)
LoVo cells were cultured in F-12K medium containing 10% FBS and passaged 2 to 3 times a week at a split ratio of 1:3 or 1:5. During passage, the cells were trypsinized and transferred to a centrifuge tube. The tube was centrifuged at 1000 rpm for 5 minutes, the supernatant medium was discarded, and fresh medium was added to resuspend the cells. 100 μL of cell suspension at a density of 1.5×10^4 cells/mL was added to a 96-well cell culture plate, and 100 μL of complete medium only was added to the periphery wells of the 96-well plate. The culture plate was incubated in an incubator for 24 hours (37° C., 5% CO2).
The sample to be tested was diluted to 1 mM with DMSO, diluted 3-fold serially to 8 concentrations, and prepared to 200× dilution with cell culture medium. Blank and control wells were set. 5 μL of the solution containing the compound to be tested prepared in gradient concentrations was added to 95 μL of fresh medium. 100 μL of 1× culture medium containing the compound was added to the culture plate. The culture plate was incubated in an incubator for 4 days (37° C., 5% CO2). 50 μL of CellTiter-Glo reagent was added to each well of the 96-well cell culture plate, and the plate was placed at room temperature in the dark for 5-10 min. The chemiluminescent signal values were read in PHERAstar, and data were processed using GraphPad software.
The inhibitory effect of the compounds of the present invention on LoVo cell proliferation can be determined by the test described above, and the measured IC50 values are shown in Table 2.
Background: Cellular ATP, detected with luciferase, serves as a proxy for viable cell number.

Read-outs that look alike come from different tables or passages of the source.

Chain of ATR enzyme (Q13535 whole entry): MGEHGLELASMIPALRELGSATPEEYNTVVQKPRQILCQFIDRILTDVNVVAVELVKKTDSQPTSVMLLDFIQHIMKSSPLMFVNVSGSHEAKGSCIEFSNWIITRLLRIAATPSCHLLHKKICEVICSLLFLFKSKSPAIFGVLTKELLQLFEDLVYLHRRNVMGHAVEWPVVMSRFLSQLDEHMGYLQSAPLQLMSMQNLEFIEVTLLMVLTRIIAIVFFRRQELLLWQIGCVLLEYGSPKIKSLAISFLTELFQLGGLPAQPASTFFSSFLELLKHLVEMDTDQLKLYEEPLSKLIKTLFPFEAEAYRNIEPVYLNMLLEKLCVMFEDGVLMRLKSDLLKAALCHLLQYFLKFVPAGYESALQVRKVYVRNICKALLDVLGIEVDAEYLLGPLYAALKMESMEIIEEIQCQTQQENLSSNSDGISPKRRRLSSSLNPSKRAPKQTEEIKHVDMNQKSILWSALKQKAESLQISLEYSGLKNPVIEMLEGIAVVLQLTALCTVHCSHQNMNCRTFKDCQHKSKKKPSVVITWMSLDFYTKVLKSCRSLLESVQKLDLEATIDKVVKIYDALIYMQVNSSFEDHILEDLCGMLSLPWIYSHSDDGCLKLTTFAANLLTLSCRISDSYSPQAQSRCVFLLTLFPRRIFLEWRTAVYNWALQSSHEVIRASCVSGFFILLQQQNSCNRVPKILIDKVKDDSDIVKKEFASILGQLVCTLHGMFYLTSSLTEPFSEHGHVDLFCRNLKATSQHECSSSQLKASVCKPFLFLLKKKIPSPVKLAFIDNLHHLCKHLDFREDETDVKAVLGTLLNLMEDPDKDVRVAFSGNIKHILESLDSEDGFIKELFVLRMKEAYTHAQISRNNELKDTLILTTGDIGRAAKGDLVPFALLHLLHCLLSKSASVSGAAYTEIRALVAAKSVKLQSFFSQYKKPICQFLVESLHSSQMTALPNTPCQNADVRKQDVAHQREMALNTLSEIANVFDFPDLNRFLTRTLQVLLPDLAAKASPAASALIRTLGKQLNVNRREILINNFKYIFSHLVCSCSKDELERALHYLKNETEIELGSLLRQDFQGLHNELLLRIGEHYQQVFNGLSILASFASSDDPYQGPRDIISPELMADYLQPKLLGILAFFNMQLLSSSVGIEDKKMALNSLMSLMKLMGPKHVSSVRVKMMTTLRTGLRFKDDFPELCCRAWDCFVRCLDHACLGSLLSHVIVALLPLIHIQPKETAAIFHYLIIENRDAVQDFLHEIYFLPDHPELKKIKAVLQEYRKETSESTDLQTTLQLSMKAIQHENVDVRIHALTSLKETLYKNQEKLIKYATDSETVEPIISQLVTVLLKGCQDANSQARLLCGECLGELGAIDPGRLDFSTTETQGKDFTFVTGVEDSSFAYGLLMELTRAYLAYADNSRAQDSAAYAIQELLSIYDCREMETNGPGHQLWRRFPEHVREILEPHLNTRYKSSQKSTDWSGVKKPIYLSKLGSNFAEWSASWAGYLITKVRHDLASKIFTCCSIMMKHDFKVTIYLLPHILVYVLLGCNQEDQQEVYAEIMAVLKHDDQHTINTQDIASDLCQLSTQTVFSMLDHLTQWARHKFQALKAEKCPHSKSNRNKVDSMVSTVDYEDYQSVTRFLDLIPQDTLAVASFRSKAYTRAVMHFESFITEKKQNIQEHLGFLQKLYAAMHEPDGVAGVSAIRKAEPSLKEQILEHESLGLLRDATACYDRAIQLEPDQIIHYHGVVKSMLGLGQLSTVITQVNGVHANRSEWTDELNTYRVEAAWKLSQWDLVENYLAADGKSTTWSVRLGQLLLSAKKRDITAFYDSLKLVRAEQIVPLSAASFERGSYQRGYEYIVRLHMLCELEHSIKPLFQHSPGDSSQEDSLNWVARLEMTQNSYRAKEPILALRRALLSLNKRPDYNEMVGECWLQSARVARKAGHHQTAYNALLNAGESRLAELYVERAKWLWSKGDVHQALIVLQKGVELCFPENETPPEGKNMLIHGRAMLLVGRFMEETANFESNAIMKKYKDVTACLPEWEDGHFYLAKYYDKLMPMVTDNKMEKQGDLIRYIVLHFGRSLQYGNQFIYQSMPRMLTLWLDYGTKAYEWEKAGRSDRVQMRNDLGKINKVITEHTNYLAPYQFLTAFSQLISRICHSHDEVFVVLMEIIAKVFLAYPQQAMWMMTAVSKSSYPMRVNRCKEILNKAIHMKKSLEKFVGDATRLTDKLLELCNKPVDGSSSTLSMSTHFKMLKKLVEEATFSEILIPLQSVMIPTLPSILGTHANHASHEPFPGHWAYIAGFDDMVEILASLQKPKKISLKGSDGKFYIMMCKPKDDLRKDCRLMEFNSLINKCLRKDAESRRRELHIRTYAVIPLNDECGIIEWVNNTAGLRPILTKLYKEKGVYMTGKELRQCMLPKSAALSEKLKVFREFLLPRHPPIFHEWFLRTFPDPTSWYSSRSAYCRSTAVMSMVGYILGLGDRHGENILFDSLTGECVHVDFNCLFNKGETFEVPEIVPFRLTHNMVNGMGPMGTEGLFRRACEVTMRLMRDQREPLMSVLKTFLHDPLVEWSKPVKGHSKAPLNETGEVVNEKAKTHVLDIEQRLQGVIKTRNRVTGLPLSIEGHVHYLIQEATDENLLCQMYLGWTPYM
Chain of ATR enzyme (Q8WXE1 whole entry partner): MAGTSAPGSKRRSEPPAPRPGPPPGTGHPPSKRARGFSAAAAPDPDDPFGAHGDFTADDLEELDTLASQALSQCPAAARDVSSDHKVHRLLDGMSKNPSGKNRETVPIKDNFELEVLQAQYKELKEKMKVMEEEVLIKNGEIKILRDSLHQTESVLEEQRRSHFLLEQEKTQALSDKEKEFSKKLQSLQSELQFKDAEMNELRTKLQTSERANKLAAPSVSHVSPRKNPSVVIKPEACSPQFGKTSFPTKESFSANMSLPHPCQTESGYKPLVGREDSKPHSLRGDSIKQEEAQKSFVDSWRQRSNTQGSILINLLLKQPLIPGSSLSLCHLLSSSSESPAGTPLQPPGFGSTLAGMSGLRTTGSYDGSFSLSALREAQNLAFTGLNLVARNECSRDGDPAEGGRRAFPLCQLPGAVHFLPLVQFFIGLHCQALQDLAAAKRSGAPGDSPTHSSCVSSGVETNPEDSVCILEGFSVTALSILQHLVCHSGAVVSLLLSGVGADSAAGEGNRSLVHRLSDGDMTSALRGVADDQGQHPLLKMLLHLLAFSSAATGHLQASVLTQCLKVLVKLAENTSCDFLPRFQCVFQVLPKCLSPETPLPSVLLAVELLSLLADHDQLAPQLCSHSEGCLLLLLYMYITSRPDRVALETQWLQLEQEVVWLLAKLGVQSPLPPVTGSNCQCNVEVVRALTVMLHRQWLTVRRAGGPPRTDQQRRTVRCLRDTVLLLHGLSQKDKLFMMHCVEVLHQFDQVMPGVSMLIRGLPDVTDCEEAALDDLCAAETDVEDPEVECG

`C[C@@H]1COCCN1c1cc(-c2ccc(NC(=O)c3cocn3)cc2F)c2cnn(-c3cc[nH]n3)c2n1` [Example 235]: the IC50 on ATR enzyme is ≤ 0.01 µM; with SNU-601 cells (120 h) it was 0.01 to 0.1 µM; in the experiment on LoVo cells it was 0.02 to 0.1 µM.
Take `C[C@@H]1COCCN1c1cc(C2CCCOC2)c2cnn(-c3cc[nH]n3)c2n1` (stereo partly drawn) [Compound 13, (3R)-4-(1-(1H-pyrazol-3-yl)-4-(tetrahydro-2H-pyran-3-yl)-1H-pyrazole[3,4-b]pyridin-6-yl)-3-methylmorpholine]: the IC50 in the experiment with LoVo cells lay within 0.02 to 0.1 µM.
For the compound `C[C@@H]1COCCN1c1cc(-c2ccc(N3CCCCCC3=O)cc2F)c2cnn(-c3cc[nH]n3)c2n1` [Example 197], the IC50 in the experiment with SNU-601 cells (120 h) was in the range of 0.01 to 0.1 µM; in the experiment on LoVo cells it was 0.02 to 0.1 µM.
Taken in the same sequence, the figures for `C[C@@H]1COCCN1c1cc(-c2ccc(N3CCCCC3=O)cc2)c2cnn(-c3cc[nH]n3)c2n1` [Compound 7, (R)-1-(4-(6-(3-methylmorpholinyl)-1-(1H-pyrazolyl-3-yl)-1H-pyrazolyl[3,4-b]pyridin-4-yl)phenyl)piperidin-2-one] were 0.01 to 0.1 µM and 0.02 to 0.1 µM.
As for `COCC#Cc1cc(N2CCOC[C@H]2C)nc2c1cnn2-c1cc[nH]n1` [Compound 5, (R)-4-(4-(3-methoxypropyl-1-alkynyl)-1-(1H-pyrazol-3-yl)-1H-pyrazole[3,4-b]pyridin-6-yl)-3-methylmorpholine], the IC50 with LoVo cells was ≤ 0.02 µM.
As to `C[C@@H]1COCCN1c1cc(-c2ccc(NC(=O)c3cccc(S(C)(=O)=O)c3)cc2)c2cnn(-c3cc[nH]n3)c2n1` [Example 145], the IC50 is 0.01 to 0.1 µM in the experiment with SNU-601 cells (120 h) and 0.02 to 0.1 µM with LoVo cells.
On to `CC(=O)Nc1ccc(-c2cc(N3CCOC[C@H]3C)nc3c2cnn3-c2cc[nH]n2)cc1` [Example 30, (R)-N-(4-(6-(3-methylmorpholinyl)-1-(1H-pyrazolyl-3-yl)-1H-pyrazolyl[3,4-b]pyridin-4-yl)phenyl)acetamide], for which the IC50 is ≤ 0.01 µM on ATR enzyme and 0.01 to 0.1 µM in the experiment with SNU-601 cells (120 h).
In the case of `C[C@@H]1COCCN1c1cc(-c2ccc(NC(=O)c3cccnc3)cc2)c2cnn(-c3cc[nH]n3)c2n1` [Example 214], the IC50 at ATR enzyme was ≤ 0.01 µM; in the experiment with SNU-601 cells, 0.01 to 0.1 µM.
Take `C[C@@H]1COCCN1c1cc(-c2ccc(NC(=O)N3CCCC3)cc2F)c2cnn(-c3cc[nH]n3)c2n1` [Example 245]: the IC50 at ATR enzyme is ≤ 0.01 µM; in the experiment on SNU-601 cells (120 h), 0.01 to 0.1 µM.
`C[C@@H]1COCCN1c1cc(-c2ccc(NC(=O)NC3CC3)cc2)c2cnn(-c3cc[nH]n3)c2n1` [Example 33, (R)-1-cyclopropyl-3-(4-(6-(3-methylmorpholinyl)-1-(1H-pyrazolyl-3-yl)-1H-pyrazolyl[3,4-b]pyridin-4-yl)phenyl)urea]: the figures for the IC50 at ATR enzyme and in the experiment with SNU-601 cells (120 h) were ≤ 0.01 µM and 0.01 to 0.1 µM, respectively.
For `Cc1cc(N2CC3CCC(O3)C2=O)ccc1-c1cc(N2CCOC[C@H]2C)nc2c1cnn2-c1cc[nH]n1` (stereo partly shown) [Example 254], the IC50 is ≤ 0.01 µM on ATR enzyme and 0.01 to 0.1 µM in the experiment with SNU-601 cells (120 h).
In the same order, the values of `C[C@@H]1COCCN1c1cc(-c2cc(NC(=O)C3CC3)on2)c2cnn(-c3cc[nH]n3)c2n1` [Example 260] are ≤ 0.01 µM and 0.01 to 0.1 µM.
In the same order, the values of `C[C@@H]1COCCN1c1cc(-c2ccc(NC(=O)C3CC3)cc2F)c2cnn(-c3cc[nH]n3)c2n1` [Example 234] are ≤ 0.01 µM and 0.01 to 0.1 µM.
Regarding `C[C@@H]1COCCN1c1cc(-c2ccc(NC(=O)N3CCCCC3)c(F)c2)c2cnn(-c3cc[nH]n3)c2n1` [Example 244], the IC50 on ATR enzyme is ≤ 0.01 µM; in the experiment on SNU-601 cells (120 h) it was 0.01 to 0.1 µM.
Take `C[C@@H]1COCCN1c1cc(C2(C#N)CCN(c3cccc(F)c3)CC2)c2cnn(-c3cc[nH]n3)c2n1` [Example 208]: the IC50 is ≤ 0.01 µM on ATR enzyme and 0.01 to 0.1 µM in the experiment on SNU-601 cells.
Consider `C[C@@H]1COCCN1c1cc(-c2ccc(N3CC4CCC(O4)C3=O)c(F)c2)c2cnn(-c3cc[nH]n3)c2n1` (stereo partly drawn) [Example 200, 3-(2-fluoro-4-(6-((R)-3-methylmorpholino)-1-(1H-pyrazol-3-yl)-1H-pyrazolo[3,4-b]pyridin-4-yl)phenyl)-8-oxa-3-azabicyclo[3.2.1]octan-2-one], for which the IC50 is ≤ 0.01 µM on ATR enzyme and 0.01 to 0.1 µM in the experiment on SNU-601 cells (120 h).
For `C[C@@H]1COCCN1c1cc(-c2cnc(N3CC4CCC(O4)C3=O)cc2F)c2cnn(-c3cc[nH]n3)c2n1` (stereo partly shown) [Example 257], the IC50 was ≤ 0.01 µM on ATR enzyme and 0.01 to 0.1 µM in the experiment on SNU-601 cells (120 h).
As for `C[C@@H]1COCCN1c1cc(-c2ccc(N3CCCCC3=O)cc2C#N)c2cnn(-c3cc[nH]n3)c2n1` [Example 224], the figures for the IC50 on ATR enzyme and with SNU-601 cells (120 h) were ≤ 0.01 µM and 0.01 to 0.1 µM, respectively.
In the same order, the values of `Cc1cc(-c2cc(N3CCOC[C@H]3C)nc3c2cnn3-c2cc[nH]n2)ccc1N1CC2CCC(O2)C1=O` (stereo partly shown) [Example 256] are ≤ 0.01 µM and 0.01 to 0.1 µM.
In the case of `C[C@@H]1COCCN1c1cc(C2(O)CCC3(CC2)CO3)c2cnn(-c3cc[nH]n3)c2n1` (stereo partly drawn) [Compound 2, (R)-6-(6-(3-methylmorpholinyl)-1-(1H-pyrazol-3-yl)-1H-pyrazole[3,4-b]pyridin-4-yl)-1-oxaspiro[2.5]octan-6-ol], in the experiment on LoVo cells, the IC50 was 0.02 to 0.1 µM.
Regarding `Cc1cc(N2CCCCC2=O)ccc1-c1cc(N2CCOC[C@H]2C)nc2c1cnn2-c1cc[nH]n1` [Example 168], the IC50 at ATR enzyme is ≤ 0.01 µM; with SNU-601 cells it was 0.01 to 0.1 µM.
On to `C[C@@H]1COCCN1c1cc(-c2ccc(NC(=O)N3CCNCC3)cc2)c2cnn(-c3cc[nH]n3)c2n1` [Example 219], for which the IC50 is ≤ 0.01 µM at ATR enzyme and 0.01 to 0.1 µM in the experiment with SNU-601 cells (120 h).
Taken in the same sequence, the figures for `Cc1cc(-c2cc(N3CCOC[C@H]3C)nc3c2cnn3-c2cc[nH]n2)ccc1NC(=O)N1CCCC1` [Example 226] were ≤ 0.01 µM and 0.01 to 0.1 µM.
As for `C[C@@H]1COCCN1c1cc(-c2ccc(N3CCCN(C)C3=O)cc2)c2cnn(-c3cc[nH]n3)c2n1` [Example 62], the IC50 on ATR enzyme is ≤ 0.01 µM; with SNU-601 cells it was 0.01 to 0.1 µM.
Regarding `C[C@@H]1COCCN1c1cc(-c2ccc(NC(=O)N3CCCC3)nc2)c2cnn(-c3cc[nH]n3)c2n1` [Example 250], the IC50 on ATR enzyme is ≤ 0.01 µM; in the experiment with SNU-601 cells (120 h), 0.01 to 0.1 µM.
In the same order, the values of `C[C@@H]1COCCN1c1cc(-c2ccc(N3CC4CCC(O4)C3=O)cn2)c2cnn(-c3cc[nH]n3)c2n1` (stereo partly shown) [Example 237] are ≤ 0.01 µM and 0.01 to 0.1 µM.
Turning to `C[C@@H]1COCCN1c1cc(-c2ccc(N3CC=CCC3=O)cc2F)c2cnn(-c3cc[nH]n3)c2n1` [Example 243], the IC50 on ATR enzyme is ≤ 0.01 µM; in the experiment on SNU-601 cells (120 h), 0.01 to 0.1 µM.
